Values of other authors, collected in patent US9630917B2, “Cysteamine prodrugs, pharmaceutical compositions thereof, and methods of use” (priority 2015, dated 2017).

Conditions: oral absorption; Smolin et al., Ped Res. 1988; 23, 616-620

**Q.** For `NCCS` [cysteamine], which absolute bioavailability is on record?
**A.** about 10%
